Series [1] concerns disc space of the L3-4 intervertebral disc. As to the kind of experiment: Dimension of the disc space after local injection into the nucleus pulposus in a pig. The class given is in vivo. Conditions: injected L3-4 disc compared with non-injected L2-3 and L4-5; FIG. 7. On the procedure:
110. performing a cross-section of the discs and measuring the length (anterio-posterior direction) and the width (bilateral direction) of the disc space. Two pigs were anesthetized and placed on their right side. Access to the L4-5 intervertebral disc was obtained through a lateral incision between the lowest rib and the iliac crest on the left side of each pig. Thereafter, the L3-4 intervertebral disc was incised with a scalpel. […] The composition was injected in a single step at a single occasion. The intervertebral discs (L2-3, L3-4, L4-5) were cross-sectioned and the length of the disc space (anterio-posterior direction) and the width (bilateral direction) of the disc space were measured by calipers. In FIGS. 5 and 6, an intervertebral disc is schematically shown in cross-section. The intervertebral disc comprises the annulus fibrosus 10, and a disc space defined by the annulus fibrosus and comprising the nucleus pulposus 11.

A short description of series [2]: Tolerability of intradiscal injection in pigs (behaviour, injection site by the naked eye). Conditions: two pigs. It counts as in vivo, pig. Here is the method: Two pigs were anesthetized and placed on their right side. Access to the L4-5 intervertebral disc was obtained through a lateral incision between the lowest rib and the iliac crest on the left side of each pig. Thereafter, the L3-4 intervertebral disc was incised with a scalpel.
The composition was injected in a single step at a single occasion.
At harvest, the pigs were killed.
The injection site was observed by the naked eye. […] The segment of the vertebral column extending from the lumbar vertebra L2 to the sacral vertebra S1 was removed. The facet joints were removed, thus allowing full flexibility of the discs with no restraints from other structures.

In the case of `CC(O)C(=O)O` (stereo not drawn) [lactic acid], in series [1], the “Observation of the cross-sectioned disc space by the naked eye” value is reported as “newly formed connective tissue in the disc space”. The “Adverse reaction such as decreased mobility or vocalization” value in series [2] (0.2 mL of 1.34 mol/L into L3-4 nucleus pulposus, period of seven days until harvest) was “no adverse reaction”. Moreover, the “Adverse reaction at the injection site, such as bleedings, inflammation or necrosis” value in series [2] (observed by the naked eye at harvest, seven days) is on record as “No adverse reaction”.

For the origin of these results see US10322098B2, “Composition for use in the treatment of intervertebral disc-related pain” (STAYBLE THERAPEUTICS AB, priority 2014, dated 2019).
